According to ChEMBL document CHEMBL5137093, “Improving Drug Delivery While Tailoring Prodrug Activation to Modulate Cmax and Cmin by Optimization of (Carbonyl)oxyalkyl Linker-Based Prodrugs of Atazanavir” (J Med Chem, 2022):
In brackets after ≈: the same amount, converted by molar mass. Each block holds one compound with its values, some of them ahead of it.

Assays:
[1] = Relative AUC ratio of Atazanavir in Sprague-Dawley rat at 1 ml/kg,iv measured upto 24 hrs by UPLC-MS/MS analysis; format: ADME; settings: in vivo
[2] = Half life in rat hepatocyte measured upto 120 mins in presence of ABT by UPLC-MS/MS analysis; format: ADME, cell-based; settings: hepatocytes, with ABT
[3] = Metabolic stability in dog intestine microsomes assessed as half life in presence of NADPH; format: ADME, Canis lupus familiaris, Microsome
[4] = Relative Cmax ratio of Atazanavir in Sprague-Dawley rat at 1 ml/kg,iv measured upto 24 hrs by UPLC-MS/MS analysis; format: ADME; settings: in vivo
[5] = Metabolic stability in monkey intestine microsomes assessed as half life; format: ADME, Macaca mulatta, Microsome; settings: rhesus monkey
[6] = Metabolic stability in human liver microsomes assessed as half life in presence of NADPH; format: ADME, Microsome
[7] = Metabolic stability in rat liver microsomes assessed as half life in presence of NADPH; format: ADME, Microsome
[8] = Relative AUC ratio of Atazanavir in Sprague-Dawley rat at 3 ml/kg,po measured upto 24 hrs by UPLC-MS/MS analysis; format: ADME; settings: in vivo
[9] = Metabolic stability in human intestine microsomes assessed as half life in presence of NADPH; format: ADME, Microsome
[10] = Metabolic stability in human liver microsomes assessed as half life; format: ADME, Microsome
[11] = Metabolic stability in human intestine microsomes assessed as half life; format: ADME, Microsome
[12] = Volume of distribution at steady state in Sprague-Dawley rat at 1 ml/kg,iv measured upto 24 hrs by UPLC-MS/MS analysis; format: ADME; settings: in vivo, read-out: Vdss
[13] = Half life in rat hepatocyte measured upto 120 mins in presence of PMSF and ABT by UPLC-MS/MS analysis; format: ADME, cell-based; settings: hepatocytes, with PMSF and ABT
[14] = Ratio of Cmax/Cmin of Atazanavir in Sprague-Dawley rat at 3 ml/kg,po measured after 24 hrs by UPLC-MS/MS analysis; format: ADME; settings: in vivo
[15] = Half life in rat hepatocyte measured upto 120 mins by UPLC-MS/MS analysis; format: ADME, cell-based; settings: hepatocytes
[16] = Ratio of Cmax/Cmin of Atazanavir in Sprague-Dawley rat at 30 ml/kg,po measured after 24 hrs by UPLC-MS/MS analysis; format: ADME; settings: in vivo
[17] = Metabolic stability in dog liver microsomes assessed as half life in presence of NADPH; format: ADME, Canis lupus familiaris, Microsome
[18] = Metabolic stability in dog liver microsomes assessed as half life; format: ADME, Canis lupus familiaris, Microsome
[19] = AUClast in Sprague-Dawley rat at 30 ml/kg,po measured upto 24 hrs by UPLC-MS/MS analysis; format: ADME; design: time < 24 hrs, dose 30 ml/kg, route po; settings: in vivo
[20] = Fold ratio of total AUC of Atazanavir in Sprague-Dawley rat at 3 ml/kg,po measured upto 24 hrs by UPLC-MS/MS analysis; format: ADME; settings: in vivo
[21] = Metabolic stability in monkey intestine microsomes assessed as half life in presence of NADPH; format: ADME, Macaca mulatta, Microsome; settings: rhesus monkey
[22] = Fold ratio of total AUC of Atazanavir in Sprague-Dawley rat at 1 ml/kg,iv measured upto 24 hrs by UPLC-MS/MS analysis; format: ADME; settings: in vivo
[23] = Cmax in Sprague-Dawley rat at 30 ml/kg,po measured upto 24 hrs by UPLC-MS/MS analysis; format: ADME; design: time < 24 hrs, dose 30 ml/kg, route po; settings: in vivo
[24] = Cmin in Sprague-Dawley rat at 1 ml/kg,iv measured after 24 hrs by UPLC-MS/MS analysis; format: ADME; settings: in vivo, read-out: Cmin
[25] = Relative AUC ratio of Atazanavir in Sprague-Dawley rat at 30 ml/kg,po measured upto 24 hrs by UPLC-MS/MS analysis; format: ADME; settings: in vivo
[26] = Cmax in Sprague-Dawley rat at 3 ml/kg,po measured upto 24 hrs by UPLC-MS/MS analysis; format: ADME; design: dose 3 ml/kg, time < 24 hrs, route po; settings: in vivo
[27] = Metabolic stability in rat intestine microsomes assessed as half life; format: ADME, Microsome
[28] = Ratio of AUC of Atazanavir in Sprague-Dawley rat at 3 ml/kg,po measured upto 24 hrs by UPLC-MS/MS analysis; format: ADME; settings: in vivo
[29] = Relative Cmax ratio of Atazanavir in Sprague-Dawley rat at 3 ml/kg,po measured upto 24 hrs by UPLC-MS/MS analysis; format: ADME; settings: in vivo
[30] = Metabolic stability in dog intestine microsomes assessed as half life; format: ADME, Canis lupus familiaris, Microsome
[31] = Ratio of Cmax/Cmin of Atazanavir in Sprague-Dawley rat at 1 ml/kg,iv measured after 24 hrs by UPLC-MS/MS analysis; format: ADME; settings: in vivo
[32] = Relative Cmax ratio of Atazanavir in Sprague-Dawley rat at 30 ml/kg,po measured upto 24 hrs by UPLC-MS/MS analysis; format: ADME; settings: in vivo
[33] = AUClast in Sprague-Dawley rat at 3 ml/kg,po measured upto 24 hrs by UPLC-MS/MS analysis; format: ADME; design: time < 24 hrs, dose 3 ml/kg, route po; settings: in vivo
[34] = Aqueous stability of the compound in phosphate buffer at pH 6.5 assessed as compound half life measured after 24 hrs by UPLC analysis; format: physicochemical; settings: buffer, pH 6.5, 24 h, 24 h
[35] = Aqueous solubility of compound at pH 4 by UPLC analysis; format: physicochemical; settings: buffer
[36] = Ratio of AUC of Atazanavir in Sprague-Dawley rat at 1 ml/kg,iv measured upto 24 hrs by UPLC-MS/MS analysis; format: ADME; settings: in vivo
[37] = Metabolic stability in rat intestine microsomes assessed as half life in presence of NADPH; format: ADME, Microsome
[38] = Half life in rat hepatocyte measured upto 120 mins in presence of PMSF by UPLC-MS/MS analysis; format: ADME, cell-based; settings: hepatocytes, with PMSF
[39] = Fold ratio of total AUC of Atazanavir in Sprague-Dawley rat at 30 ml/kg,po measured upto 24 hrs by UPLC-MS/MS analysis; format: ADME; settings: in vivo
[40] = Clearance in Sprague-Dawley rat at 1 ml/kg,iv measured upto 24 hrs by UPLC-MS/MS analysis; format: ADME; settings: in vivo
[41] = Ratio of AUC of Atazanavir in Sprague-Dawley rat at 30 ml/kg,po measured upto 24 hrs by UPLC-MS/MS analysis; format: ADME; settings: in vivo
[42] = AUClast in Sprague-Dawley rat at 1 ml/kg,iv measured upto 24 hrs by UPLC-MS/MS analysis; format: ADME; design: dose 1 ml/kg, time < 24 hrs, route iv; settings: in vivo
[43] = Metabolic stability in monkey liver microsomes assessed as half life in presence of NADPH; format: ADME, Macaca mulatta, Microsome; settings: rhesus monkey
[44] = Tmax in Sprague-Dawley rat at 30 ml/kg,po measured upto 24 hrs by UPLC-MS/MS analysis; format: ADME; settings: in vivo
[45] = Cmax in Sprague-Dawley rat at 1 ml/kg,iv measured upto 24 hrs by UPLC-MS/MS analysis; format: ADME; design: dose 1 ml/kg, time < 24 hrs, route iv; settings: in vivo
[46] = Metabolic stability in rat liver microsomes assessed as half life; format: ADME, Microsome
[47] = Metabolic stability in monkey liver microsomes assessed as half life; format: ADME, Macaca mulatta, Microsome; settings: rhesus monkey
[48] = Aqueous solubility of compound at pH 1 by UPLC analysis; format: physicochemical; settings: buffer
[49] = Half life in Sprague-Dawley rat at 1 ml/kg,iv measured upto 24 hrs by UPLC-MS/MS analysis; format: ADME; settings: in vivo
[50] = Tmax in Sprague-Dawley rat at 3 ml/kg,po measured upto 24 hrs by UPLC-MS/MS analysis; format: ADME; settings: in vivo
[51] = Aqueous stability of the compound in acetate buffer at pH 4 assessed as compound half life measured after 24 hrs by UPLC analysis; format: physicochemical; settings: buffer, pH 4, 24 h, 24 h

Ratio [1]: 7
half-life [2]: 0.433 h
half-life [3]: 0.883 h
Ratio [4]: 2.07
half-life [5]: > 2 h
half-life [6]: 1.18 h
half-life [7]: 0.833 h
Ratio [8]: 6.7
half-life [9]: 0.967 h
half-life [10]: 2.82 h
half-life [11]: 1.83 h
Vd [12]: 35 L/kg
half-life [13]: 1.43 h
Ratio [14]: 204.8
half-life [15]: 0.35 h
Ratio [16]: 329.4
half-life [17]: 9 min
half-life [18]: 4.82 h
AUC(0-t) at 24 h [19]: 0.601 µM·h
Ratio [20]: 6.8
half-life [21]: 0.4 h
Ratio [22]: 7.3
Cmax [23]: 189 nM
concentration at 24 h [24]: 2 nM
Ratio [25]: 1.32
Cmax ([26]; Sprague-Dawley, 3 ml/kg): 19 nM
half-life [27]: > 2 h
Ratio [28]: 0.02
Ratio [29]: 3.8
half-life [30]: > 2 h
Ratio [31]: 1040.4
Ratio [32]: 2.1
AUC(0-t) at 24 h ([33]; Sprague-Dawley, 3 ml/kg): 0.044 µM·h
t1/2 [34]: 4.9 h
solubility [35]: > 2300 µg/mL
Ratio [36]: 0.04
half-life [37]: 1.78 h
half-life [38]: 1.43 h
Ratio [39]: 1.35
clearance [40]: 102 mL/min/kg
Ratio [41]: 0.02
AUC(0-t) at 24 h [42]: 0.17 µM·h
half-life [43]: 9 min
Tmax [44]: 0.8 h
Cmax [45]: 151 nM
half-life [46]: 3.73 h
half-life [47]: 2.45 h
solubility [48]: > 2100 µg/mL
half-life [49]: 6 h
Tmax ([50]; Sprague-Dawley, read-out: Tmax): 0.6 h
Structure (SMILES): COC(=O)N[C@H](C(=O)N[C@@H](Cc1ccccc1)[C@H](CN(Cc1ccc(-c2ccccn2)cc1)NC(=O)[C@@H](NC(=O)OC)C(C)(C)C)OC(=O)OC(OC(=O)[C@@H](N)C(C)C)C(C)C)C(C)(C)C (stereo in doubt; 3s)

Ratio [8]: 11.8
t1/2 [51]: 376.3 h
Ratio [14]: 22.7
Ratio [16]: 10.8
AUC(0-t) at 24 h [19]: 64.6 µM·h
Ratio [20]: 42.1
Cmax [23]: 3580 nM
Ratio [25]: 0.29
Cmax ([26]; 24 h): 1880 nM
Ratio [28]: 2.57
Ratio [29]: 2.7
Ratio [32]: 0.14
AUClast ([33]; 24 h): 11.628 µM·h
t1/2 [34]: 334.3 h
solubility [35]: 160 µg/mL (≈ 169 µM)
Ratio [39]: 3.38
Ratio [41]: 10.81
Tmax [44]: 3 h
solubility [48]: > 1850 µg/mL
Tmax ([50]; po, 24 h): 0.5 h
Structure (SMILES): COC(=O)N[C@H](C(=O)N[C@@H](Cc1ccccc1)[C@H](CN(Cc1ccc(-c2ccccn2)cc1)NC(=O)[C@@H](NC(=O)OC)C(C)(C)C)OC(=O)OC(OC(=O)[C@H](C(C)C)N(C)C)C(C)C)C(C)(C)C (stereo in doubt; 5h)
